From ChEMBL document CHEMBL5321210, “N-adamantyl-anthranil amide derivatives: New selective ligands for the cannabinoid receptor subtype 2 (CB2R)” (Eur J Med Chem, 2023)
The source made the active and inactive calls. No cut-off for these calls is given here.

How the values were obtained:
THP-1 [1] = assay: Antiinflammatory activity against LPS-activated human THP-1 monocytes assessed as increase in IL-4 production at 10 uM incubated for 24 hrs by ELISA coupled qRT-PCR analysis; format: functional, cell-based
THP-1 [2] = assay: Antiinflammatory activity in PMA-differentiated human THP-1 macrophages assessed as increase in IL-10 production at 10 uM incubated for 24 hrs in the presence of JTE907 by ELISA coupled qRT-PCR analysis; format: functional, cell-based
THP-1 [3] = assay: Antiinflammatory activity in human THP-1 monocytes assessed as increase in IL-10 production at 10 uM incubated for 24 hrs in the presence of JTE907 by ELISA coupled qRT-PCR analysis; format: functional, cell-based
THP-1 [4] = assay: Antiinflammatory activity in human THP-1 monocytes assessed as increase in IL-4 production at 10 uM incubated for 24 hrs in the presence of JTE907 by ELISA coupled qRT-PCR analysis; format: functional, cell-based
THP-1 [5] = assay: Antiinflammatory activity in PMA-differentiated human THP-1 monocytes assessed as increase in IL-4 production at 10 uM incubated for 24 hrs in the presence of N-(adamantan-1-yl)-4-(pentylamino)-[1,1'-biphenyl]-3-carboxamide by ELISA coupled qRT-PCR analysis; format: functional, cell-based
THP-1 [6] = assay: Antiinflammatory activity against LPS-activated PMA-differentiated human THP-1 macrophages assessed as decrease in TNF-alpha production at 10 uM incubated for 24 hrs by ELISA coupled qRT-PCR analysis relative to control; format: functional; set-up: scale not given: the % may be the effect or the level left
THP-1 [7] = assay: Antiinflammatory against LPS-activated human THP-1 monocytes assessed as decrease in IL-1beta production at 10 uM incubated for 24 hrs in the presence of JTE907 by ELISA coupled qRT-PCR analysis; format: functional, cell-based
THP-1 [8] = assay: Antiinflammatory activity in human THP-1 monocytes assessed as decrease in TNF-alpha production at 10 uM incubated for 24 hrs by ELISA coupled qRT-PCR analysis relative to control; format: functional; set-up: scale not given: the % may be the effect or the level left
THP-1 [9] = assay: Antiinflammatory activity against LPS-activated human THP-1 monocytes assessed as decrease in TNF-alpha production at 10 uM incubated for 24 hrs in the presence of N-(adamantan-1-yl)-4-(pentylamino)-[1,1'-biphenyl]-3-carboxamide by ELISA coupled qRT-PCR analysis; format: functional, cell-based
THP-1 [10] = assay: Antiinflammatory activity in human THP-1 monocytes assessed as decrease in IL-1beta production at 10 uM incubated for 24 hrs by ELISA coupled qRT-PCR analysis relative to control; format: functional; set-up: scale not given: the % may be the effect or the level left
THP-1 [11] = assay: Antiinflammatory activity against LPS-activated human THP-1 monocytes assessed as decrease in IL-1beta production at 10 uM incubated for 24 hrs by ELISA coupled qRT-PCR analysis; format: functional, cell-based
THP-1 [12] = assay: Antiinflammatory activity against LPS-activated human THP-1 monocytes assessed as decrease in IL-6 production at 10 uM incubated for 24 hrs by ELISA coupled qRT-PCR analysis; format: functional, cell-based
THP-1 [13] = assay: Antiinflammatory activity against LPS-activated human THP-1 monocytes assessed as decrease in IFN-gamma production at 10 uM incubated for 24 hrs by ELISA coupled qRT-PCR analysis; format: functional, cell-based
THP-1 [14] = assay: Antiinflammatory activity in human THP-1 monocytes assessed as decrease in IL-6 production at 10 uM incubated for 24 hrs by ELISA coupled qRT-PCR analysis relative to control; format: functional; set-up: scale not given: the % may be the effect or the level left
THP-1 [15] = assay: Antiinflammatory activity in PMA-differentiated human THP-1 macrophages assessed as decrease in IFN-gamma production at 10 uM incubated for 24 hrs in the presence of JTE907 by ELISA coupled qRT-PCR analysis; format: functional, cell-based
THP-1 [16] = assay: Antiinflammatory activity in human THP-1 monocytes assessed as increase in IL-4 production at 10 uM incubated for 24 hrs in the presence of N-(adamantan-1-yl)-4-(pentylamino)-[1,1'-biphenyl]-3-carboxamide by ELISA coupled qRT-PCR analysis; format: functional, cell-based
THP-1 [17] = assay: Antiinflammatory activity against LPS-activated human THP-1 monocytes assessed as decrease in TNF-alpha production at 10 uM incubated for 24 hrs by ELISA coupled qRT-PCR analysis; format: functional, cell-based
THP-1 [18] = assay: Antiinflammatory activity against LPS-activated PMA-differentiated human THP-1 monocytes assessed as decrease in IFN-gamma production at 10 uM incubated for 24 hrs in the presence of N-(adamantan-1-yl)-4-(pentylamino)-[1,1'-biphenyl]-3-carboxamide by ELISA coupled qRT-PCR analysis; format: functional, cell-based
THP-1 [19] = assay: Antiinflammatory activity in human THP-1 monocytes assessed as decrease in IFN-gamma production at 10 uM incubated for 24 hrs by ELISA coupled qRT-PCR analysis relative to control; format: functional; set-up: scale not given: the % may be the effect or the level left
THP-1 [20] = assay: Antiinflammatory activity in human THP-1 monocytes assessed as decrease in IL-1beta production at 10 uM incubated for 24 hrs in the presence of N-(adamantan-1-yl)-4-(pentylamino)-[1,1'-biphenyl]-3-carboxamide by ELISA coupled qRT-PCR analysis; format: functional, cell-based
THP-1 [21] = assay: Antiinflammatory activity against LPS-activated human THP-1 monocytes assessed as increase in IL-10 production at 10 uM incubated for 24 hrs by ELISA coupled qRT-PCR analysis; format: functional, cell-based
THP-1 [22] = assay: Antiinflammatory activity in PMA-differentiated human THP-1 macrophages assessed as reduction in TNF-alpha production at 10 uM incubated for 24 hrs by ELISA coupled qRT-PCR analysis relative to control; format: functional; set-up: scale not given: the % may be the effect or the level left
THP-1 [23] = assay: Antiinflammatory activity against LPS-activated human THP-1 monocytes assessed as increase in IL-10 production at 10 uM incubated for 24 hrs in the presence of N-(adamantan-1-yl)-4-(pentylamino)-[1,1'-biphenyl]-3-carboxamide by ELISA coupled qRT-PCR analysis; format: functional, cell-based
THP-1 [24] = assay: Antiinflammatory against LPS-activated human THP-1 monocytes assessed as increase in IL-4 production at 1 to 10 uM incubated for 24 hrs in the presence of JTE907 by ELISA coupled qRT-PCR analysis; format: functional, cell-based; settings: dose 1-10 µM
Cannabinoid receptor 2 = Cannabinoid receptor 2 (Homo sapiens, UniProt P34972); assay: Agonist activity at human CB2 receptor expressed in CHO-K1 cells assessed as inhibition of NKH-477 induced cAMP production by measuring maximal efficacy incubated for 30 mins by luminescence based analysis relative to control; format: functional, cell-based; settings: filed as agonist
THP-1 [25] = assay: Antiinflammatory activity against LPS-activated PMA-differentiated human THP-1 macrophages assessed as decrease in TNF-alpha production at 1 to 10 uM incubated for 24 hrs by ELISA coupled qRT-PCR analysis relative to control; format: functional; set-up: scale not given: the % may be the effect or the level left; settings: dose 1-10 µM
THP-1 [26] = assay: Antiinflammatory activity in PMA-differentiated human THP-1 macrophages assessed as reduction in IL-6 production at 1 to 10 uM incubated for 24 hrs by ELISA coupled qRT-PCR analysis relative to control; format: functional; set-up: scale not given: the % may be the effect or the level left; settings: dose 1-10 µM
THP-1 [27] = assay: Antiinflammatory activity in LPS-activated PMA-differentiated human THP-1 macrophages assessed as increase in IL-4 production at 1 to 10 uM incubated for 24 hrs in the presence of JTE907 by ELISA coupled qRT-PCR analysis; format: functional, cell-based; settings: dose 1-10 µM
THP-1 [28] = assay: Antiinflammatory activity in PMA-differentiated human THP-1 macrophages assessed as increase in IL-4 production at 1 to 10 uM incubated for 24 hrs in the presence of JTE907 by ELISA coupled qRT-PCR analysis; format: functional, cell-based; settings: dose 1-10 µM

Chain of Cannabinoid receptor 2 (P34972 whole entry): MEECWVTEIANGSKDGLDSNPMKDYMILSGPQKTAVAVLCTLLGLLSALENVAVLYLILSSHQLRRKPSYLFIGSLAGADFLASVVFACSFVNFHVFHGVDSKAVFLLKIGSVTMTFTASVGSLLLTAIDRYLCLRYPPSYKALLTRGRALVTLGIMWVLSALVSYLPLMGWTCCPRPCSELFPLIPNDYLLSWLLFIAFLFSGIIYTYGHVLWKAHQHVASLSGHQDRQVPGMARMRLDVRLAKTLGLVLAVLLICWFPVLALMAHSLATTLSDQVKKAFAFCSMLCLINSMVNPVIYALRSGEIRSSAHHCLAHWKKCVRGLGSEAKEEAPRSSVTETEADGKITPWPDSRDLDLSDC

Compound	Activity (THP-1 [1])	Activity (THP-1 [8]) [%]	Activity (THP-1 [10]) [%]	Activity (THP-1 [11])	Activity (THP-1 [12])	Activity (THP-1 [13])	Activity (THP-1 [14]) [%]	Activity (THP-1 [17])	Activity (THP-1 [19]) [%]	Activity (THP-1 [21])	other results
O=C(NC1CCCCC1)c1cn(CCN2CCOCC2)c2cc(Cl)ccc2c1=O	Active	60	60	Active	Active	Active	60	Active	40	Active	Activity (THP-1 [2]): inactive; Activity (THP-1 [3]): inactive; Activity (THP-1 [4]): inactive; Activity (THP-1 [5]): inactive; Activity (THP-1 [6]): 70%; Activity (THP-1 [7]): inactive; Activity (THP-1 [9]): inactive; Activity (THP-1 [15]): inactive; Activity (THP-1 [16]): inactive; Activity (THP-1 [18]): inactive; Activity (THP-1 [20]): inactive; Activity (THP-1 [22]): 50%; Activity (THP-1 [23]): inactive
CCCCCNc1ccccc1C(=O)NC12CC3CC(CC(C3)C1)C2	Active	50	50	Active	Active	Active	40	Active	50	Active	Activity (THP-1 [24]): inactive; Emax (Cannabinoid receptor 2): 77.2%; Activity (THP-1 [25]): 70%; Activity (THP-1 [26]): 50%; Activity (THP-1 [27]): inactive; Activity (THP-1 [28]): inactive
